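Grown in 96-well plates, cells were treated for 48 hours with each compound at five concentrations. Insufficient inhibition: endpoint recorded as highest concentration tested. GI50 marks 50% less growth.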 Calls of active or inactive are those of the source. Cut-off read from the data, not from the text of the source: active = GI50 up to about 1.1 µM and inactive = higher.
Assays:
Test in all cases: NCI-60 cell line screen, 48 h
[1] = tested on: NCI-H522
[2] = tested on: M14
[3] = tested on: DU-145
[4] = tested on: SW-620
[5] = tested on: UACC-62
[6] = tested on: HOP-92
[7] = tested on: U-251
[8] = tested on: HOP-62
[9] = tested on: CAKI-1
[10] = tested on: PC-3
[11] = tested on: NCI-H226
[12] = tested on: Hs-578T
[13] = tested on: SF-268
[14] = tested on: RXF 393
[15] = tested on: OVCAR-5
[16] = tested on: KM12
[17] = tested on: HT-29
[18] = tested on: HCC 2998
[19] = tested on: NCI-H23

| SMILES | GI50 [1] | GI50 [2] | GI50 [3] | GI50 [4] | GI50 [5] | GI50 [6] | GI50 [7] | GI50 [8] | GI50 [9] | GI50 [10] | GI50 [11] | GI50 [12] | GI50 [13] | GI50 [14] | GI50 [15] | GI50 [16] | GI50 [17] | GI50 [18] | GI50 [19] |
| --- | --- | --- | --- | --- | --- | --- | --- | --- | --- | --- | --- | --- | --- | --- | --- | --- | --- | --- | --- |
| C=C(Cl)[C@@](Cl)(CBr)CC[C@@H](Br)C(C)(C)Cl | 22.4 µM (inactive) | 10.8 µM (inactive) | 0.664 µM (active) | 0.321 µM (active) | 0.745 µM (active) | 0.292 µM (active) | 0.154 µM (active) | 0.103 µM (active) | 0.467 µM (active) | 0.555 µM (active) | 26.2 µM (inactive) | 0.386 µM (active) | 0.251 µM (active) | 0.126 µM (active) | 1.59 µM (inactive) | 0.228 µM (active) | 0.253 µM (active) | 0.488 µM (active) | 8.02 µM (inactive) |
| NC1CC2C3CCC2C1C3=O (stereo not given) | > 100 µM (inactive) | > 100 µM (inactive) | > 100 µM (inactive) | > 100 µM (inactive) | > 100 µM (inactive) | > 100 µM (inactive) | > 100 µM (inactive) | > 100 µM (inactive) | > 100 µM (inactive) | > 100 µM (inactive) | > 100 µM (inactive) | > 100 µM (inactive) | > 100 µM (inactive) | > 100 µM (inactive) | > 100 µM (inactive) | > 100 µM (inactive) | > 100 µM (inactive) | > 100 µM (inactive) | > 100 µM (inactive) |
| CNc1nc2c(C)ccc3nc(N(C)C)nc-3c2n1C | > 10 µM (inactive) | > 10 µM (inactive) | > 10 µM (inactive) | > 10 µM (inactive) | – | > 10 µM (inactive) | > 10 µM (inactive) | > 10 µM (inactive) | > 10 µM (inactive) | > 10 µM (inactive) | > 10 µM (inactive) | > 10 µM (inactive) | > 10 µM (inactive) | > 10 µM (inactive) | > 10 µM (inactive) | > 10 µM (inactive) | > 10 µM (inactive) | > 10 µM (inactive) | > 10 µM (inactive) |
| O=c1ccn(CC2(CO)CCCC2)c(=O)[nH]1 | > 100 µM (inactive) | – | > 100 µM (inactive) | > 100 µM (inactive) | > 100 µM (inactive) | > 100 µM (inactive) | > 100 µM (inactive) | > 100 µM (inactive) | > 100 µM (inactive) | > 100 µM (inactive) | > 100 µM (inactive) | > 100 µM (inactive) | > 100 µM (inactive) | > 100 µM (inactive) | > 100 µM (inactive) | > 100 µM (inactive) | > 100 µM (inactive) | > 100 µM (inactive) | > 100 µM (inactive) |
| NNC(=O)CC(=O)Nc1cccc(Cl)c1 | 25.4 µM (inactive) | – | > 100 µM (inactive) | > 100 µM (inactive) | > 100 µM (inactive) | 47.3 µM (inactive) | > 100 µM (inactive) | > 100 µM (inactive) | > 100 µM (inactive) | > 100 µM (inactive) | > 100 µM (inactive) | > 100 µM (inactive) | > 100 µM (inactive) | > 100 µM (inactive) | > 100 µM (inactive) | > 100 µM (inactive) | > 100 µM (inactive) | > 100 µM (inactive) | > 100 µM (inactive) |
| CC(=O)C(=C(c1ccccc1)c1ccccc1)c1ccccc1 | > 100 µM (inactive) | > 100 µM (inactive) | > 100 µM (inactive) | > 100 µM (inactive) | > 100 µM (inactive) | > 100 µM (inactive) | > 100 µM (inactive) | > 100 µM (inactive) | – | 45.2 µM (inactive) | > 100 µM (inactive) | > 100 µM (inactive) | > 100 µM (inactive) | > 100 µM (inactive) | > 100 µM (inactive) | > 100 µM (inactive) | > 100 µM (inactive) | > 100 µM (inactive) | > 100 µM (inactive) |

Source: ChEMBL document CHEMBL1201862, “PubChem BioAssay data set” (2004)
